Like-named read-outs stand apart in the source and are kept apart here.
Key:
mouse alpha2B receptor = target: T1, mouse alpha2B receptor (Mus musculus, UniProt P30545); test: FLIPR Ca+2 influx antagonist assay, alpha 2B; type: cell-based; conditions: for % Antagonism Alpha 2B: value in parentheses
T1 construct: expressed in transfected cells; host or cells: HEK 293
T1 sequence (P30545 1-453): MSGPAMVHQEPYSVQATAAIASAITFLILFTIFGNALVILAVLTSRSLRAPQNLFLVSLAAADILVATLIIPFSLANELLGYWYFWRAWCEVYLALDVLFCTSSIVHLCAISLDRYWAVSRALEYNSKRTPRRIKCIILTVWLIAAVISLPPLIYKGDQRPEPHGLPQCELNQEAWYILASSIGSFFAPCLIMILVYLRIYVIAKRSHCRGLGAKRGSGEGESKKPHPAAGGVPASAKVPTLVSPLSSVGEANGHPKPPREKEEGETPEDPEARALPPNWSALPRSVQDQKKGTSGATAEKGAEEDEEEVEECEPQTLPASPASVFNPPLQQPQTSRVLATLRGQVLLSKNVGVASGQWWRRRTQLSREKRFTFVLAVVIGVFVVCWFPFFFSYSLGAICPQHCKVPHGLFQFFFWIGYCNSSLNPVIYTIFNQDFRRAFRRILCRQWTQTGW
Protocol: (§1) HEK 293 cells stably expressing the human alpha 2A receptor and the chimeric G protein Gqi5, the mouse alpha2B receptor and the G protein G16, and the human alpha 2C receptor and the chimeric G protein Gqi5 are plated in poly-D-lysine coated 96-well plates at 50,000-75,000 cells per well and grown overnight in DMEM supplemented with 10% fetal bovine serum. For FLIPR (fluorometric image plate reader) evaluation, cells are washed twice with HBSS/HEPES Buffer (1× Hanks Buffered Salt Solution, 20 mM HEPES, pH 7.4) prior to the addition of Fluo-4-AM (4 uM Fluo-4-AM, 0.04% pluronic acid in HBSS/HEPES Buffer), a calcium-sensitive dye. Cells are loaded with dye for 60 minutes at 37° C., then washed 4 times with HBSS/HEPES Buffer. For both the agonist and antagonist assay, the test compounds are tested between 0.64 nM-10,000 nM.
(§2) However, the antagonist blocks the transient calcium signal of the standard agonist norepinephrine in a dose-dependent manner. The residual norepinephrine peak height is compared to the non-antagonized norepinephrine peak height for the determination of % antagonism.

[1] = target: T2, Alpha 1A adrenergic receptor (Homo sapiens, UniProt P35348); test: FLIPR Ca+2 influx antagonist assay, alpha 1A; type: cell-based; conditions: for % Antagonism Alpha 1A: value in parentheses, vs norepinephrine peak height
T2 sequence (P35348 1-466): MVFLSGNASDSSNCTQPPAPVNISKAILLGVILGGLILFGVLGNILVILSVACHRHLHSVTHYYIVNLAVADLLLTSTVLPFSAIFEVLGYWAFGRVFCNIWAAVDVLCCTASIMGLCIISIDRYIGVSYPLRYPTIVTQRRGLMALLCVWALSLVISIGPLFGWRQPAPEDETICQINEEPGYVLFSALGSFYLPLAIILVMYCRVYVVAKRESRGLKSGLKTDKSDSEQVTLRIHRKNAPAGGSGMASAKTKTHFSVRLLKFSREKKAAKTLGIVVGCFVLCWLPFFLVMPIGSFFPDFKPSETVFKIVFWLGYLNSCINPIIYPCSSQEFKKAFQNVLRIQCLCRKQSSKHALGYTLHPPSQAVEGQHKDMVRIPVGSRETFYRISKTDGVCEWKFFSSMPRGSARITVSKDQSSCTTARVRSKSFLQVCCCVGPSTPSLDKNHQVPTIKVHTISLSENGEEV

[2] = target: T3, Alpha 1B adrenergic receptor (Homo sapiens, UniProt P35368); test: FLIPR Ca+2 influx antagonist assay, alpha 1B; type: cell-based; conditions: for % Antagonism Alpha 1B: value in parentheses, vs norepinephrine peak height
T3 sequence (P35368 1-520): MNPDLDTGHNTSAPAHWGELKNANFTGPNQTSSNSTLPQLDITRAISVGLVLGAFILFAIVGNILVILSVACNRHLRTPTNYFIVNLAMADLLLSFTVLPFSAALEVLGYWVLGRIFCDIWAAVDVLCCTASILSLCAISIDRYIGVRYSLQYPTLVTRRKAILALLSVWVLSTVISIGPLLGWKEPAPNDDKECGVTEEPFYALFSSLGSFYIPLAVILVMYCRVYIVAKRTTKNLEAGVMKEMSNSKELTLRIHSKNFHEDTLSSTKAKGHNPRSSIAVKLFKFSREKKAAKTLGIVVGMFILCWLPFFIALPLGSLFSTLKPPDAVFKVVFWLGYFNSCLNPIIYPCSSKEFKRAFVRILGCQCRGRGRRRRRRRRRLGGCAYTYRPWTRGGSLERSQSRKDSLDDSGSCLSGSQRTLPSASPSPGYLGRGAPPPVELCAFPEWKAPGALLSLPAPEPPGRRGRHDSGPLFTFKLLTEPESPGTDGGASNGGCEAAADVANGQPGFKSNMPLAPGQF

human alpha 2A receptor = target: T4, human alpha 2A receptor (Homo sapiens, UniProt P08913); test: FLIPR Ca+2 influx antagonist assay, alpha 2A; type: cell-based; conditions: HEK 293 cells, Gqi5; for IC50: antagonism of norepinephrine calcium signal; for % Antagonism Alpha 2A: value in parentheses
T4 construct: expressed in transfected cells; host or cells: HEK 293
T4 sequence (P08913 1-465): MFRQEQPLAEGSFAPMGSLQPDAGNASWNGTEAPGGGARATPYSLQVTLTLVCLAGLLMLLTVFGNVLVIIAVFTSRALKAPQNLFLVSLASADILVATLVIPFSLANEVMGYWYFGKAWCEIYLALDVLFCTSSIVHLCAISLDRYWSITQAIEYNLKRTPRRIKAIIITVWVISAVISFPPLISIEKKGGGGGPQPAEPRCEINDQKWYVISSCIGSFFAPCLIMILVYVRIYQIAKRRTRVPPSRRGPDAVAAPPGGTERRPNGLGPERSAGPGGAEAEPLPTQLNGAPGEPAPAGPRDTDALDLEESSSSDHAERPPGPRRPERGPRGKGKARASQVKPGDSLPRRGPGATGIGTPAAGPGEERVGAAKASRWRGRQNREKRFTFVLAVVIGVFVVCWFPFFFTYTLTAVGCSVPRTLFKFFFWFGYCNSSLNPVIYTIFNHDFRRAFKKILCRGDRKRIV
Protocol: as §1, §2

human alpha 2C receptor = target: T5, human alpha 2C receptor (Homo sapiens, UniProt P18825); test: FLIPR Ca+2 influx antagonist assay, alpha 2C; type: cell-based; conditions: HEK 293 cells, Gqi5; for % Antagonism Alpha 2C: value in parentheses
T5 construct: expressed in transfected cells; host or cells: HEK 293
T5 sequence (P18825 1-462): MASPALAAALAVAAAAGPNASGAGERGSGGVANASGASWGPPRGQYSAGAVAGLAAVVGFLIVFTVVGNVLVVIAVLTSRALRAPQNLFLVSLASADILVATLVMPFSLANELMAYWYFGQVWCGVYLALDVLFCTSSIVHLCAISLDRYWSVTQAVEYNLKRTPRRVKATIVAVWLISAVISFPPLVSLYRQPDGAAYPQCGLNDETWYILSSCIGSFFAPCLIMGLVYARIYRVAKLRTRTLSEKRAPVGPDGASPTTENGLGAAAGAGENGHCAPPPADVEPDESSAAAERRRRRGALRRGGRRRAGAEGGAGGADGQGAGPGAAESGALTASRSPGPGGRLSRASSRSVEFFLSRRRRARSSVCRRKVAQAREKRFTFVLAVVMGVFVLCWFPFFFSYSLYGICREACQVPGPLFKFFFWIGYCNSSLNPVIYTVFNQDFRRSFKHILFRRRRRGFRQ
Protocol: as §1, §2

mechanical allodynia = test: Chung rat nerve ligation model of neuropathic pain (mechanical allodynia); type: in vivo; conditions: co-administered IP at 100 ug/kg each, 30 minutes post drug, FIG. 1A
Protocol: The Chung model is a surgical model of neuropathic pain in rats. The pain state is generated by tight ligation of the L5 and L6 spinal nerves on one side of the rat. The surgical procedure results in a long-lasting mechanical allodynia in the affected foot. Mechanical allodynia is measured using von Frey filaments, where the investigator stimulates the plantar surface of the affected foot. Different sized filaments generate a different force. A painful response is signified by withdrawal of the paw.
Mechanical allodynia is measured at 30 minutes post drug and is reported as the percentage response to the baseline reading taken pre-drug administration.
The lack of allodynial reversal in these rats is also a measure of antagonist ability to block a response.

[3] = HEK 293 cells, G16, antagonism of norepinephrine calcium signal, read-out: IC50 Alpha 2B

SMILES: Cn1c(N)c(C#N)c2c(c1=S)CNCC2 [Example 4, 3-amino-2-methyl-1-thioxo-1,2,5,6,7,8-hexahydro-2,7-naphthyridine-4-carbonitrile]
- IC50 (mouse alpha2B receptor; [3]): 342 nM
- % Antagonism Alpha 2B (mouse alpha2B receptor; HEK 293 cells, G16): 93%

SMILES: CN1CCc2c(C#N)c(N)n(C)c(=S)c2C1 [Example 5, 3-amino-2,7-dimethyl-1-thioxo-1,2,5,6,7,8-hexahydro-2,7-naphthyridine-4-carbonitrile]
- % Antagonism Alpha 1A [1]: nd (64) %
- IC50 [2]: > 8300 nM
- % Antagonism Alpha 1B [2]: 0%
- IC50 (human alpha 2A receptor): 1990 nM
- % Antagonism Alpha 2A (human alpha 2A receptor): 69%
- IC50 (mouse alpha2B receptor): 10 nM
- % Antagonism Alpha 2B (mouse alpha2B receptor; HEK 293 cells, G16): 95%
- % Antagonism Alpha 2C (human alpha 2C receptor): nd (25) %
- block of allodynia reversal by 4-Cyclopent-3-enylmethyl-1,3-dihydro-imidazole-2-thione (mechanical allodynia): completely blocks

SMILES: CN1CCc2c(C#N)c(N)n(N)c(=S)c2C1 [Example 6, 2,3-diamino-4-cyano-7-methyl-(1,2,5,6,7,8-hexahydro-2,7-napthyridine-1-thione)]
- IC50 ([1]; antagonism of norepinephrine calcium signal, read-out: IC50 Alpha 1A): > 7500 nM
- % Antagonism Alpha 1A [1]: 19%
- IC50 ([2]; antagonism of norepinephrine calcium signal, read-out: IC50 Alpha 1B): > 7500 nM
- % Antagonism Alpha 1B [2]: 19%
- % Antagonism Alpha 2A (human alpha 2A receptor): nd (36) %
- IC50 (mouse alpha2B receptor; [3]): 204 nM
- % Antagonism Alpha 2B (mouse alpha2B receptor; HEK 293 cells, G16): 112%
- IC50 (human alpha 2C receptor; antagonism of norepinephrine calcium signal): 1410 nM
- % Antagonism Alpha 2C (human alpha 2C receptor): 29%

SMILES: CN1Cc2c(c(C#N)c(N)n(N)c2=S)CC1(C)C [Example 7, 2,3-diamino-4-cyano-6,6,7-trimethyl-(1,2,5,6,7,8-hexahydro-2,7-napthyridine-1-thione)]
- IC50 [1]: 382 nM
- % Antagonism Alpha 1A [1]: 98%
- IC50 [2]: > 7500 nM
- % Antagonism Alpha 1B [2]: 16%
- IC50 (human alpha 2A receptor): > 7500 nM
- % Antagonism Alpha 2A (human alpha 2A receptor): 0%
- IC50 (mouse alpha2B receptor): 29 nM
- % Antagonism Alpha 2B (mouse alpha2B receptor; HEK 293 cells, G16): 97%
- % Antagonism Alpha 2C (human alpha 2C receptor): nd (17) %

SMILES: CCn1c(N)c(C#N)c2c(c1=S)CN(C)CC2 [Example 8, 3-Amino-2-ethyl-4-cyano-7-methyl-(1,2,5,6,7,8-hexahydro-2,7-napthyridine-1-thione)]
- IC50 (mouse alpha2B receptor; [3]): 473 nM
- % Antagonism Alpha 2B (mouse alpha2B receptor; HEK 293 cells, G16): 95%

SMILES: CN1CCc2c(C#N)c(N)n(C)c(=O)c2C1 [Example 9, 3-Amino-2-methyl-4-cyano-7-methyl-(1,2,5,6,7,8-hexahydro-2,7-napthyridine-1-ketone)]
- IC50 (mouse alpha2B receptor; [3]): 1170 nM
- % Antagonism Alpha 2B (mouse alpha2B receptor; HEK 293 cells, G16): 88%

Reference: US20100076194A1, “SUBSTITUTED 3-AMINO-1-OXO OR THIOXO-1,2,5,6,7,8-HEXAHYDRO-2,7-NAPHTHYRIDINE-4-CARBONITRILES ARE SELECTIVE ALPHA 2B ANTAGONISTS” (ALLERGAN, INC., priority 2008, published 2010)
